Legend:
Type in all cases: in vivo
ICR mice [1] = assay: Acetic acid writhing test; set-up: key to Inhibition rate (%): Symbol “—” indicates that the data obtained at this dose was not significantly different from the vehicle control group; conditions: 0.6% acetic acid ip two hours after administration; for inhibition in vivo at 3 mg/kg / inhibition in vivo at 4 µmol/kg: Mus musculus, 2 h, read-out: Inhibition rate (%); for inhibition in vivo at 3 mg/kg: po, 3 mg/kg intragastric
Description: (§1) ICR mice, 18-22 g, half of them being male and the other half being female, provided by the Department of Laboratory Animals, Peking University (License No.: SCXK (Beijing) 2016-0010).
ICR mice, half of them being male and the other half being female, were randomly grouped, 8 mice per group. Vehicle control group (double-distilled water), ibuprofen control group, and groups for samples to be tested (the compounds and doses thereof were shown in Table 2) were set. All drugs were dissolved in double-distilled water before administration, and given by intragastric administration at predetermined doses. Two hours after the administration, the mice were intraperitoneally injected with 0.6% acetic acid solution (10 ml/kg, ip), and the number of times the mice writhed (abdomen depressed, buttock raised, body elongated) was recorded within 5-20 minutes. The inhibition rate % of compound on writhing pain in mice was calculated according to the following formula.
Inhibition rate %=(number of writhing times in vehicle control group−number of writhing times in test group)/number of writhing times in vehicle control group×100

ICR mice [2] = assay: Xylene-induced mouse ear swelling test (Effect Example 4); set-up: key to Inhibition rate (%): Symbol “—” indicates that the data obtained at this dose was not significantly different from the vehicle control group; conditions: 50 uL xylene two hours after administration; for inhibition in vivo at 3 mg/kg: 3 mg/kg intragastric
Description: as §1
ICR mice were randomly grouped, 8 mice per group, half of them being male and the other half being female. Vehicle control group (double-distilled water) and groups for samples to be tested (the compounds and doses thereof were shown in Table 4). All drugs were dissolved in double-distilled water immediately before administration, and given by intragastric administration at predetermined doses. Two hours after administration, 50 uL of xylene was smeared evenly on the inner and outer sides of right ear of mouse. After 30 minutes, the left and right ears of mouse were cut, and circular ear pieces of the same size were punched at the same position on the left and right ears, and weighed. The ear swelling inhibition rate of compound in mice was calculated according to the formula.
Inhibition rate %=(degree of ear swelling in vehicle control group−degree of ear swelling in test group)/degree of ear swelling in vehicle control group×100

ICR mice [3] = assay: Hot plate test; conditions: Mus musculus, po, latency 2.0 hours after administration, hot plate 55° C., read-out: PTE %; for change in vivo at 3 mg/kg: 3 mg/kg intragastric; for change in vivo at 1 mg/kg: 1 mg/kg intragastric; for change in vivo at 4 µmol/kg: 4 μmol/kg intragastric
Description: as §1
The temperature of hot plate was adjusted to 55° C., and the responses of mouse such as licking hind feet and jumping were used as the observation indexes. The time from the placement of mice on copper plate to the appearance of the above responses was defined as latency time. The latency time was measured for three times 30 minutes before administration, and the average value thereof was used as basic threshold, or baseline latency (BL). The animals with a latency time greater than 15 s and less than 5 s were removed, and the residual mice were randomly grouped, 8 animals per group.
Vehicle control group (double-distilled water) and groups for samples to be tested (the compounds and doses thereof were shown in Table 1) were set. All drugs were dissolved in […] before administration, and given by intragastric administration. The latency time was measured 2.0 hours after administration. Percentage of Pain Threshold Elevated Rate (PTE %) of compound on mice was calculated according to the following formula:
PTE %=(latency time of test group−latency time of vehicle control group)/latency time of vehicle control group×100

ICR mice [4] = assay: Formalin experiment; conditions: Mus musculus, po, 2 h, 2.5% formalin two hours after administration, phase II 10-60 minutes, read-out: Phase II pain inhibition rate (%); for inhibition in vivo at 9 mg/kg: 9 mg/kg intragastric; for inhibition in vivo at 1 mg/kg: 1 mg/kg intragastric; for inhibition in vivo at 4 µmol/kg: 4 μmol/kg intragastric
Description: as §1
ICR mice, half of them being male and the other half being female, were randomly grouped, 8 mice per group. Vehicle control group (double-distilled water) and groups for samples to be tested were set, in which the compounds and doses thereof were shown in Table 3. All drugs were dissolved in double-distilled water before administration, and given by intragastric administration at predetermined doses. Two hours after administration, the mice were injected with 20 ul of 2.5% formalin solution in the right hind foot, and the time (s) of licking or biting foot was recorded as an index of pain response, in which 0-5 minutes was phase I, 10-60 minutes was phase II, and the total observation time was 60 minutes. The phase II pain inhibition rate of compound in mice was calculated according to the following formula:
Inhibition rate %=(time of licking or biting foot in vehicle control group−time of licking or biting foot in test group)/time of licking or biting foot in vehicle control group×100

ICR mice [5] = assay: Xylene-induced ear swelling test in mice (Effect Example 6); conditions: 2 mg/kg i.g., 30 μL xylene one hour after administration
Description: (§2) ICR mice, body weight 18 g-22 g, half of them being male and the other half being female, provided by the Department of Laboratory Animals, Peking University. The animals were raised in a standard environment: temperature 23±1° C., relative humidity 55±5%, light-dark cycle 12 h/12 h, and fed with standard pellet feed.
Mice were randomly divided into 5 groups, 8 mice per group, half of them being male and the other half being female. Vehicle control group (double-distilled water, i.g.), dexamethasone control group (2 mg/kg, i.g.), compound DXL-A-22 group (1 mg/kg, i.g.), and compound DXL-A-24 group (1 mg/kg, i.g.) were set. All drugs were dissolved in double-distilled water before administration, and given by intragastric administration at 0.1 mL/10 g. One hour after administration, 30 μL of xylene was evenly smeared on the inner and outer sides of right ear of mouse to cause inflammation. After 0.5 hour, the left and right ears of mouse were cut, and circular ear pieces of the same size were punched at the same position on the left and right ears using the punch (diameter 6 mm) respectively, and weighed for the weights of the left and right ear pieces. The difference between the weight of the right ear after applying xylene and the weight of the left ear without applying xylene was used as swelling degree index (i.e., swelling degree). The swelling degree was calculated according to formula (1). The intensity of anti-inflammatory effect was expressed as inhibition rate (%), and the inhibition rate (%) was calculated according to formula (2).
Swelling degree=weight of right ear piece−weight of left ear piece (1)
Inflammation inhibition rate (%)=(ear swelling degree in vehicle control group−ear swelling degree in drug group)/ear swelling degree in vehicle control group×100% (2)

ICR mice [6] = assay: Carrageenan-induced paw swelling in mice; conditions: 0.5 mg/kg i.g.
Description: as §2
The mouse was fixed in a special holder, and both hind feet were exposed. Before the test, a line was drawn at 0.5 cm below the ankle joint of mouse with a marker, and used as a mark for measuring plantar volume. 30 minutes before administration the volume of right hind foot was measured as basic threshold. The mice were randomly divided into 5 groups, 8 mice per group, half of them being male and the other half being female. Vehicle control group (double-distilled water, i.g.), dexamethasone control group (0.5 mg/kg, i.g.), compound DXL-A-22 group (1 mg/kg, i.g.), and DXL-A-24 group (1 mg/kg, i.g.) were set. All drugs were dissolved in double-distilled water before administration, and were administered at 0.1 mL/10 g. Immediately after intragastric administration, 20 μL of 5% carrageenan saline solution was injected subcutaneously in the right hind foot of the mice, and the plantar volumes were measured at time points of 0.5 h, 1 h and 2 h after injection. The difference between the plantar volume of right foot after injection of carrageenan and the plantar volume of right foot before injection was used as swelling degree index (i.e., swelling degree). The swelling degree was calculated according to formula (3). The intensity of anti-inflammatory effect was expressed as inhibition rate (%), and the inhibition rate (%) was calculated according to formula (4).
Swelling degree=plantar volume of right foot after injection−plantar volume of right foot before injection (3)
Inflammation inhibition rate (%)=(plantar swelling degree in vehicle control group−plantar swelling degree in drug administration group)/plantar swelling degree in vehicle control group×100% (4)

[7] = Mus musculus, po, 2 h, read-out: Inhibition rate (%)
[8] = Mus musculus, po, 2 h, 4 μmol/kg intragastric, read-out: Inhibition rate (%)

Molecule `FC(F)(F)c1cccc(N2CC[N+]3(CCCC3)CC2)c1` [DXL-A-06, 8-(3-(trifluoromethyl)phenyl)-5,8-diazaspiro[4.5]decan-5-ium bromide] has an inhibition in vivo at 3 mg/kg (ICR mice [1]) of 14%, an inhibition in vivo at 3 mg/kg (ICR mice [2]; [7]) of 45.9% and a change in vivo at 3 mg/kg (ICR mice [3]) of 16.7%. It also gave an inhibition in vivo at 9 mg/kg (ICR mice [4]) of 17.6%.

`Br.Fc1ccc(N2CC[N+]3(CCCC3)CC2)cc1F` [DXL-A-21, 8-(3,4-difluorophenyl)-5,8-diazaspiro[4.5]decan-5-ium bromide] was tested, and the “Inhibition rate (%)” value (ICR mice [1]; 1 mg/kg intragastric) was “—”, the inhibition in vivo at 1 mg/kg (ICR mice [2]; Mus musculus, po, 2 h, 1 mg/kg intragastric, read-out: Inhibition rate (%)) was 42.5% and the change in vivo at 1 mg/kg (ICR mice [3]) was 36.6%. The inhibition in vivo at 1 mg/kg (ICR mice [4]) was 36.6%.

`Cc1cccc(N2CC[N+]3(CCCC3)CC2)c1` [DXL-A-10, 8-(m-tolyl)-5,8-diazaspiro[4.5]decan-5-ium bromide] showed an inhibition in vivo at 3 mg/kg (ICR mice [1]) of 29.8%, an inhibition in vivo at 3 mg/kg (ICR mice [2]; [7]) of 27.4% and a change in vivo at 3 mg/kg (ICR mice [3]) of 11.2%. For the same molecule, the inhibition in vivo at 9 mg/kg (ICR mice [4]) was 46.9%.

`C[C@@H]1C[C@H]2[C@@H]3CCC4=CC(=O)C=C[C@]4(C)[C@@]3(F)[C@@H](O)C[C@]2(C)[C@@]1(O)C(=O)CO` [Dexamethasone, reference compound] was tested, and the “Inhibition rate (%)” value (ICR mice [5]) was 69.28%, the “Swelling degree” value (ICR mice [5]; mean±SD) was 2.93 ± 0.32 mg and the “0.5 h inhibition rate (%)” value (ICR mice [6]; 0.5 h after carrageenan injection) was 69.55%. The “0.5 h swelling degree (μL)” value (ICR mice [6]; 0.5 h after carrageenan injection, mean±SD) was 26.00 ± 14.21**/ μL, the “1 h inhibition rate (%)” value (ICR mice [6]; 1 h after carrageenan injection) was 77.06% and the “1 h swelling degree (μL)” value (ICR mice [6]; 1 h after carrageenan injection, mean±SD) was 19.88 ± 10.09**/ μL. For the same molecule, the “2 h inhibition rate (%)” value (ICR mice [6]; 2 h after carrageenan injection) was 84.64% and the “2 h swelling degree (μL)” value (ICR mice [6]; 2 h after carrageenan injection, mean±SD) was 17.13 ± 11.54**/ μL.

In the case of `Cc1ccc(N2CC[N+]3(CCCC3)CC2)cc1[N+](=O)[O-].[Br-]` [DXL-A-30, 8-(4-methyl-3-nitrophenyl)-5,8-diazaspiro[4.5]decan-5-ium bromide], the inhibition in vivo at 4 µmol/kg (ICR mice [1]; 4 μmol/kg intragastric) is reported as 41.8%, the “Inhibition rate (%)” value (ICR mice [2]; 4 μmol/kg intragastric) is reported as “—” and the change in vivo at 4 µmol/kg (ICR mice [3]) is reported as 21%. For the same molecule, the inhibition in vivo at 4 µmol/kg (ICR mice [4]) was 16.9%.

In the case of `Br.Fc1ccc(N2CC[N+]3(CCCC3)CC2)cc1` [DXL-A-16, 8-(4-fluorophenyl)-5,8-diazaspiro[4.5]decan-5-ium bromide], the “Inhibition rate (%)” value (ICR mice [1]; 1 mg/kg intragastric) is reported as “—”, the “Inhibition rate (%)” value (ICR mice [2]; 1 mg/kg intragastric) is reported as “—” and the change in vivo at 1 mg/kg (ICR mice [3]) is reported as 31.4%. It also gave an inhibition in vivo at 1 mg/kg (ICR mice [4]) of 31.4%.

In the case of `Cc1cc(N2CC[N+]3(CCCC3)CC2)cc([N+](=O)[O-])c1` [DXL-A-29, 8-(3-methyl-5-nitrophenyl)-5,8-diazaspiro[4.5]decan-5-ium bromide], the inhibition in vivo at 4 µmol/kg (ICR mice [1]; 4 μmol/kg intragastric) is reported as 76%, the inhibition in vivo at 4 µmol/kg (ICR mice [2]; [8]) is reported as 63.3% and the change in vivo at 4 µmol/kg (ICR mice [3]) is reported as 36%. The inhibition in vivo at 4 µmol/kg (ICR mice [4]) was 17.3%.

In the case of `N#Cc1ccc(N2CC[N+]3(CCCC3)CC2)cc1[N+](=O)[O-].[Br-]` [DXL-A-32, 8-(4-cyano-3-nitrophenyl)-5,8-diazaspiro[4.5]decan-5-ium bromide], the “Inhibition rate (%)” value (ICR mice [1]; 4 μmol/kg intragastric) is reported as “—”, the inhibition in vivo at 4 µmol/kg (ICR mice [2]; [8]) is reported as 20.4% and the change in vivo at 4 µmol/kg (ICR mice [3]) is reported as 38%. It also gave an inhibition in vivo at 4 µmol/kg (ICR mice [4]) of 2.64%.

`Br.N#Cc1ccc(N2CC[N+]3(CCCC3)CC2)cc1` [DXL-A-19, 8-(4-cyanophenyl)-5,8-diazaspiro[4.5]decan-5-ium bromide] was tested, and the “Inhibition rate (%)” value (ICR mice [1]; 1 mg/kg intragastric) was “—”, the “Inhibition rate (%)” value (ICR mice [2]; 1 mg/kg intragastric) was “—” and the change in vivo at 1 mg/kg (ICR mice [3]) was 34.3%. The inhibition in vivo at 1 mg/kg (ICR mice [4]) was 34.3%.

For `Clc1cccc(N2CC[N+]3(CCCC3)CC2)c1` [DXL-A-05, 8-(3-chlorophenyl)-5,8-diazaspiro[4.5]decan-5-ium bromide], the inhibition in vivo at 3 mg/kg (ICR mice [1]) was 22.5%, the inhibition in vivo at 3 mg/kg (ICR mice [2]; [7]) was 30.8% and the change in vivo at 3 mg/kg (ICR mice [3]) was 19.5%. It also gave an inhibition in vivo at 9 mg/kg (ICR mice [4]) of 32.9%.

For `Clc1ccc(N2CC[N+]3(CCCC3)CC2)cc1.[Br-]` [DXL-A-23, 8-(4-chlorophenyl)-5,8-diazaspiro[4.5]decan-5-ium bromide], the “Inhibition rate (%)” value (ICR mice [1]; 1 mg/kg intragastric) was “—”, the “Inhibition rate (%)” value (ICR mice [2]; 1 mg/kg intragastric) was “—” and the change in vivo at 1 mg/kg (ICR mice [3]) was 39.2%. It also gave an inhibition in vivo at 1 mg/kg (ICR mice [4]) of 39.2%.

From patent US20200369674A1, “ANTI-PAIN COMPOUND AND PREPARATION METHOD THEREOF” (LUNAN PHARMACEUTICAL GROUP CORPORATION, priority 2017, published 2020)
